Data published in patent publication US20090143288A1, “Peptide-complement conjugates” (Roche Palo Alto LLC, priority 2007, published 2009).

Target: HR1 region of HIV-1 gp41 (immobilized biotinylated HR1 peptide Biotin-T-2324) (Human immunodeficiency virus type 1 group M subtype B, UniProt P04582, G556A)
Assay: BIAcore surface plasmon resonance analysis of the binding to the HR1 region
Conditions: SPR, BIAcore 3000, 25° C., HBS-P buffer, 1:1 Langmuir binding model

CC[C@H](C)[C@H](NC(=O)[C@H](CCC(N)=O)NC(=O)[C@H](C)NC(=O)[C@H](CCC(N)=O)NC(=O)[C@H](CCC(=O)O)NC(=O)[C@H](CC(C)C)NC(=O)[C@H](CC(C)C)NC(=O)[C@H](C)NC(=O)[C@@H](NC(=O)[C@@H](NC(=O)[C@H](CCCCN)NC(=O)[C@H](CCC(N)=O)NC(=O)[C@H](CCC(=O)O)NC(=O)[C@H](Cc1c[nH]c2ccccc12)NC(=O)[C@H](CCC(=O)O)NC(=O)[C@H](CCC(N)=O)NC(=O)[C@H](Cc1c[nH]c2ccccc12)NC(C)=O)[C@@H](C)CC)[C@@H](C)O)C(=O)N[C@@H](CCC(N)=O)C(=O)N[C@@H](CCC(N)=O)C(=O)N[C@@H](CCC(=O)O)C(=O)N[C@@H](CCCCN)C(=O)N[C@@H](CC(N)=O)C(=O)N[C@@H](CCC(=O)O)C(=O)N[C@@H](Cc1ccc(O)cc1)C(=O)N[C@@H](CCC(=O)O)C(=O)N[C@@H](CC(C)C)C(=O)N[C@@H](CCC(N)=O)C(=O)N[C@@H](CCCCN)C(=O)N[C@@H](CC(C)C)C(=O)N[C@@H](CC(=O)O)C(=O)N[C@@H](CCCCN)C(=O)N[C@@H](Cc1c[nH]c2ccccc12)C(=O)N[C@@H](C)C(=O)N[C@@H](CO)C(=O)N[C@@H](CC(C)C)C(=O)N[C@@H](Cc1c[nH]c2ccccc12)C(=O)N[C@@H](CCC(=O)O)C(=O)N[C@@H](Cc1c[nH]c2ccccc12)C(=O)N[C@@H](Cc1ccccc1)C(N)=O [Rob T-1249, WQEWEQKITALLEQAQIQQEKNEYELQKLDKWASLWEWF]
ka (association rate constant): 6.4 * 10^5 1/ms
kd (dissociation rate constant): 0.000845 s⁻¹
